Test results published in patent publication US5374645A (Ciba-Geigy Corporation, priority 1993, dated 1994).
Like-named read-outs stand apart in the source and are kept apart here.

Columns and labels:
Rabbits = conditions: rabbit, in vivo
[1] = not given; remark: listed apart in the source

Row | SMILES | classification as primary irritant or corrosive by dermal application (Rabbits) | Terbutaline Flux (pH 3.8) [mcg/cm^2 /hr] | relative flux (flux in water case as unity) (pH 3.8) | Terbutaline Flux (pH 4.4) [mcg/cm^2 /hr] | relative flux (flux in water case as unity) (pH 4.4) | Terbutaline Flux (pH 4.6) [mcg/cm^2 /hr] | relative flux (flux in water case as unity) (pH 4.6) | Terbutaline Flux (pH 4.9) [mcg/cm^2 /hr] | relative flux (flux in water case as unity) (pH 4.9) | Terbutaline Flux (pH 5) [mcg/cm^2 /hr] | relative flux (flux in water case as unity) (pH 5) | Terbutaline Flux ([1]; pH 3.8) [mcg/cm^2 /hr] | relative flux (flux in water case as unity) ([1]; pH 3.8) | Terbutaline Flux ([1]; pH 4.2) [mcg/cm^2 /hr] | relative flux (flux in water case as unity) ([1]; pH 4.2)
1 | CC(C)O [Isopropanol, isopropanol] | neither pure isopropanol nor aqueous isopropanol are classified as primary irritants or as corrosives |  |  |  |  |  |  |  |  |  |  |  |  |  | 
2 | CC(C)(C)NCC(O)c1cc(O)cc(O)c1 (stereo not drawn) [Terbutaline, terbutaline] |  | 0.1 | 1 | 16.3 | 163 | 12.8 | 128 | 16.1 | 161 | 5.3 | 53 | 0.1 | 1 | 4.1 | 40
